Test results: patent publication US20210196899A1, “MICRONEEDLE COATED WITH DRUG AND MANUFACTURING METHOD FOR SAME” (SR BIOTEK INC., priority 2018, published 2021)
No end group written: not given here.

System: Fibroblasts (CCD-986SK)
Experiment: Measurement of collagen content in cell line (Procollagen type I peptide EIA kit)
Format: cell-based
Details: FIG. 4
Experimental: The culture supernatant was collected and the amount of collagen was measured as described below according to the guidelines of the Ministry of Food and Drug Safety, and the results thereof are shown in FIG. 4.
100 μl of an antibody-PoD conjugate solution was placed in each well, after which the culture solution and a standard solution were added in an amount of 20 μL thereto and cultured at 37° C. for 3 hr. The culture solution was removed from the well, followed by washing four times with 400 μL of a phosphate-buffered saline (PBS). 100 μL of a color development reagent (Procollagen type I peptide EIA kit, Takara Biomedical Co.) was added thereto, followed by culture at room temperature for 15 min, addition with 100 μL of 1 N sulfuric acid, and measurement at 450 nm using an ELISA reader.

KTTKS [reference compound]
collagen synthesis and promotion effects (50 to 200 ppm): increased in proportion to the concentration

NCCCC[C@H](NC(=O)[C@H](Cc1c[nH]cn1)NC(=O)CNC(=O)CS)C(=O)O [GHK-TA]
collagen synthesis and promotion effects (concentration of 70 to 80 ppm, 24 hr): superior collagen synthesis and promotion effects

KTTKS-TA: sulfhydryl KTTKS of Example 1-3-1-2; Chemical Formula 5 Lys-Thr-Thr-Lys-Ser-X with linker X thioglycolic acid (TA) (KTTKS-{thioglycolic acid})
collagen synthesis and promotion effects (50 to 200 ppm): vastly superior compared to KTTKS

(EEMQRR)-TA: sulfhydryl-hexapeptide of Example 1-3-1-3; Chemical Formula 7 Glu-Glu-Met-Gln-Arg-Arg-X with linker X thioglycolic acid (TA) (EEMQRR-{thioglycolic acid})
collagen synthesis and promotion effects (thioglycolic acid (TA) as the linker compared to cysteine (CS) as the linker): superior collagen synthesis and promotion effects
